{"source": "paper PMC7044277", "about": "(Nature Communications, 2020)", "assay_type_in_all_cases": "cell-based", "key": {"320 non-olfactory GPCRs [1]": {"molecular_target": "T1, 320 non-olfactory GPCRs (Homo sapiens, UniProt P32249)", "T1 construct": "expressed in transfected cells; host or cells: HTLA cells", "T1 sequence (P32249 whole entry)": "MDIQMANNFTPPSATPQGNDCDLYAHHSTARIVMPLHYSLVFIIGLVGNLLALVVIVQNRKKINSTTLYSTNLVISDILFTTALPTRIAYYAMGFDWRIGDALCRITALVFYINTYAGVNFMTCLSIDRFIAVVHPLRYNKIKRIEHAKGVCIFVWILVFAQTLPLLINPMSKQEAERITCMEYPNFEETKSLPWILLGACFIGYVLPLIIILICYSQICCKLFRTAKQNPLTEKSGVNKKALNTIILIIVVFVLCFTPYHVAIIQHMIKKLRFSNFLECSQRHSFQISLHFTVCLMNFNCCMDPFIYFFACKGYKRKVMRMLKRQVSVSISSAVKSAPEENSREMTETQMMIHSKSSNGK"}, "320 non-olfactory GPCRs [2]": {"molecular_target": "T2, 320 non-olfactory GPCRs (Homo sapiens, UniProt P43115)", "T2 construct": "expressed in transfected cells; host or cells: HTLA cells", "T2 sequence (P43115 whole entry)": "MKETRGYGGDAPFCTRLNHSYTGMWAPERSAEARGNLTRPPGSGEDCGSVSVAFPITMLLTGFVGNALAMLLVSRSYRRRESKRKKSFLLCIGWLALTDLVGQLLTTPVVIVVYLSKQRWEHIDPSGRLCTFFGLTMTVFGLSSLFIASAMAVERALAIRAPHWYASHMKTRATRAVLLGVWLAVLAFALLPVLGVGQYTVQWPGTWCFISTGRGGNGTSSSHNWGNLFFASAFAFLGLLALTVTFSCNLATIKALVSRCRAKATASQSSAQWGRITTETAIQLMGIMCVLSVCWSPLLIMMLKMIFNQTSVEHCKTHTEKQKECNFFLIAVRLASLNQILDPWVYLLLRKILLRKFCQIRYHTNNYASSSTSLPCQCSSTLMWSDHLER", "details": "receptor PTGER3; replicate values, Fig_4g"}, "320 non-olfactory GPCRs [3]": {"molecular_target": "T3, 320 non-olfactory GPCRs (Homo sapiens, UniProt P47901)", "T3 construct": "expressed in transfected cells; host or cells: HTLA cells", "T3 sequence (P47901 whole entry)": "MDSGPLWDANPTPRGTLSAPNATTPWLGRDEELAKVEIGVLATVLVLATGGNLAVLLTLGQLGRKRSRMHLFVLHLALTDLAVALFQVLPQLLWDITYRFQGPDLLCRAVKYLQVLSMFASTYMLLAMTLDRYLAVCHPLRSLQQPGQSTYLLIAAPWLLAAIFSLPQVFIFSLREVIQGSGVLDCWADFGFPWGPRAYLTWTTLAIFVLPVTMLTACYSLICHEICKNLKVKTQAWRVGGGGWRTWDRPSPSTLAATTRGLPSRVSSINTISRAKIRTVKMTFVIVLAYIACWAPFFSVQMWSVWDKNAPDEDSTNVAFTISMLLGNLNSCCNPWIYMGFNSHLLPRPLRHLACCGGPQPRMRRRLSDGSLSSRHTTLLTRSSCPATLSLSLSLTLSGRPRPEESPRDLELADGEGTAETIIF"}, "320 non-olfactory GPCRs [4]": {"molecular_target": "T4, 320 non-olfactory GPCRs (Homo sapiens, UniProt P51679)", "T4 construct": "expressed in transfected cells; host or cells: HTLA cells", "T4 sequence (P51679 whole entry)": "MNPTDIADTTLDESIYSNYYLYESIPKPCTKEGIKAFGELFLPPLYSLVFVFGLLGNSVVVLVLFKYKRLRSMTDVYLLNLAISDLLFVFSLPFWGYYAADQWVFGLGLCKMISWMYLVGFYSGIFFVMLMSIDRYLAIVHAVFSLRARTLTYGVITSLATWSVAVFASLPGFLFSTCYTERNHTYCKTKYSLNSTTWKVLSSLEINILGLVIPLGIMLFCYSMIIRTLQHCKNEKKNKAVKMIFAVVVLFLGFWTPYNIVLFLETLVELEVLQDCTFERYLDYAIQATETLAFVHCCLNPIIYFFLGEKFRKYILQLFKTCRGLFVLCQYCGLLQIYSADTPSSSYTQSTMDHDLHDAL"}}, "note": "Several values for one entry are separate records, joined by “and”; a condition that tells them apart may be missing. Equal entries are not always repeated.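 For Fold of Basal in this document: compound tested at 1 µM final concentration.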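 For GPCRome agonism screen response in this document: fold over basal response of each receptor without drug.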"}
{"smiles": "CCOc1cccc2cc(C(C)NCC3(O)CCCCC3)oc12", "note": "(stereo not shown) [O4LE6]", "values": [{"measurement": "Fold of Basal", "setting": "320 non-olfactory GPCRs [1]", "result": "2.191 and 1.736 and 1.097 and 1.536"}, {"measurement": "GPCRome agonism screen response", "setting": "320 non-olfactory GPCRs [2]", "result": "0.07165 and 0.9825 and 0.5999"}, {"measurement": "Fold of Basal", "setting": "320 non-olfactory GPCRs [3]", "result": "1.0215 and 1.01 and 1.094 and 0.8472"}, {"measurement": "Fold of Basal", "setting": "320 non-olfactory GPCRs [4]", "result": "1.013 and 0.8978 and 0.7406 and 0.6452"}]}
